Consider six molecules from patent EP4011354A1, “NEW COSMETICS SOLVENTS BASED ON TWO DIFFERENT COMPONENTS” (priority 2020, dated 2022).

Data set [1] in a line: Solubility of actives in water and in eutectic solvents. In kind it is physicochemical. Particulars: for solubility: water. The source says: Following is shown some examples for actives solubilization: • Dihydromyricetin • ∘ Solubility in Water 0.09% wt. • ∘ Solubility in Betaine:Urea 2:3 > 0.5% wt • ∘ Solubility in Betaine:Glucose 1:1 > 0.5% wt • ∘ Solubility in Betaine:Malic Acid 1:1 > 0.5% wt • ∘ Solubility in Proline:Sorbitol 1:1 > 0.5% wt • ∘ • Folic Acid • ∘ Solubility in Water 0.00016% wt. • ∘ Solubility in Betaine:Glycerol 1:3 > 1% wt • Thiamidol • ∘ Solubility in Water 0.017% wt. • ∘ Solubility in Betaine:Glycerol 1:3 > 2% wt

A short description of data set [2]: Stability of 5 % vitamin C solutions in eutectic solvents versus water. The format is physicochemical. Particulars: 40 degrees, after 16 weeks.
A short description of data set [3]: Liberation of actives and dermal penetration (pig-skin penetration test). Particulars: 0,5% solution in betaine : malic acid (1:1 + 20% water; NADES). As to the method: Actives liberation and dermal penetration behavior were evaluated for a 0,5% caffeine solution in an inventive eutectic solvent, betaine : malic acid (1:1 + 20% water; NADES).
Data set [4] in a line: In vivo sweat reduction test. Particulars: Betaine-Glycerine (molar ratios 1:3), 10,5 wt.% calcium lactate, 37,5 wt.% water (figure 2).

Molecules are shown by their SMILES. Converted amounts (≈) assume the structure as drawn. Read-outs that look alike come from different tables or passages of the source. Some results are limits rather than exact numbers.

On to `Nc1nc2ncc(CNc3ccc(C(=O)N[C@@H](CCC(=O)O)C(=O)O)cc3)nc2c(=O)[nH]1` [Folic Acid], for which the “Solubility in Betaine:Glycerol 1:3” value in data set [1] is over 1 % wt. In addition, the solubility in data set [1] (read-out: Solubility in Water) amounted to 0.0016 mg/mL (≈ 3.62 µM).
Regarding `O=C1c2c(O)cc(O)cc2O[C@H](c2cc(O)c(O)c(O)c2)[C@H]1O` [Dihydromyricetin], in data set [1], the “Solubility in Betaine:Glucose 1:1” value was over 0.5 % wt, the “Solubility in Betaine:Malic Acid 1:1” value is over 0.5 % wt, the “Solubility in Betaine:Urea 2:3” value is on record as over 0.5 % wt and the “Solubility in Proline:Sorbitol 1:1” value is over 0.5 % wt. This molecule also showed a solubility in data set [1] of 0.9 mg/mL (≈ 2810 µM).
As for `O=C1O[C@H]([C@@H](O)CO)C(O)=C1O` [vitamin C, ascorbic acid], the remaining at 2688 h in data set [2] (in the eutectic solvents (table 1, B-F), read-out: active still intact) is at most 82%; in data set [2] (water, aqueous solution, read-out: initial vitamin C still measurable) it was 10%.
With `CC(C)C(=O)Nc1nc(-c2ccc(O)cc2O)cs1` [Thiamidol, Isobutylamido Thiazolyl Resorcinol], in data set [1], the “Solubility in Betaine:Glycerol 1:3” value is on record as over 2 % wt. The solubility in data set [1] (read-out: Solubility in Water) is 0.17 mg/mL (≈ 611 µM).
Regarding `Cn1c(=O)c2c(ncn2C)n(C)c1=O` [caffeine], the dermal absorption entry in data set [3] (compared to the water solution) was “lower”. In addition, the liberation over time result in data set [3] (compared to the water solution (figure 4)) is “surprisingly lower”.
As to `CC(O)C(=O)O` (centres unmarked) [calcium lactate], the sweat reduction result in data set [4] was “sweat reduction”.

The solubility is how much of the substance goes into solution per volume.
